This assay deals with CD2F1 mice, L1210 leukemia ip, survival T/C. Description: NCI In Vivo Anticancer Drug Screen. Data for tumor model L1210 Leukemia (intraperitoneal) in CD2F1 (CDF1) mice. To be noted: higher = longer survival. The gist of the method: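 Tumor-bearing mice (transplanted tumor) were split into treated and vehicle control groups, and the measured endpoint of each treated group was divided by that of its vehicle controls.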

Setting [1] is: endpoint: mean survival time, dose: 100.0 mg/kg/injection, schedule: Q04DX002 (ip), vehicle: saline with Tween-80.
Where [2] appears, read: endpoint: mean survival time, dose: 200.0 mg/kg/injection, schedule: Q04DX002 (ip), vehicle: saline with Tween-80.
[3] abbreviates: endpoint: mean survival time, dose: 50.0 mg/kg/injection, schedule: Q01DX009 (ip), vehicle: saline with Tween-80.
Where [4] appears, read: endpoint: mean survival time, dose: 100.0 mg/kg/injection, schedule: Q01DX009 (ip), vehicle: saline with Tween-80.
[5] abbreviates: endpoint: mean survival time, dose: 200.0 mg/kg/injection, schedule: Q01DX009 (ip), vehicle: saline with Tween-80.
[6] abbreviates: endpoint: mean survival time, dose: 400.0 mg/kg/injection, schedule: Q04DX002 (ip), vehicle: saline with Tween-80.
[7] abbreviates: endpoint: mean survival time, dose: 100.0 mg/kg/injection, schedule: Q04DX003 (ip), vehicle: saline with Tween-80.
Where [8] appears, read: endpoint: mean survival time, dose: 200.0 mg/kg/injection, schedule: Q04DX003 (ip), vehicle: saline with Tween-80.
Setting [9] is: endpoint: mean survival time, dose: 400.0 mg/kg/injection, schedule: Q04DX003 (ip), vehicle: saline with Tween-80.
Where [10] appears, read: endpoint: mean survival time, dose: 200.0 mg/kg/injection, schedule: Q01DX001 (ip), vehicle: saline with Tween-80.
[11] abbreviates: endpoint: mean survival time, dose: 400.0 mg/kg/injection, schedule: Q01DX001 (ip), vehicle: saline with Tween-80.
[12] abbreviates: endpoint: mean survival time, dose: 25.0 mg/kg/injection, schedule: Q01DX009 (ip), vehicle: saline with Tween-80.

Values joined by “and” are separate entries in the source; they are usually repeats but may differ in a detail not shown here. Identical values can stand only once. Toxic doses and inconclusive results are not listed.

For the compound `CCC(=O)OC(=N)C(=N)OC(=O)CC`, the T/C is 98 % of control (endpoint: mean survival time, dose: 25.0 mg/kg/injection, schedule: Q04DX002 (ip), vehicle: saline with Tween-80); 98 % of control (endpoint: mean survival time, dose: 50.0 mg/kg/injection, schedule: Q04DX002 (ip), vehicle: saline with Tween-80); 98 % of control under setting [1]; 95 % of control under setting [2].

As to `COc1cc2cc3c4ccc(OC)c(OC)c4cc[n+]3c(C)c2cc1OC` (tested in a mixture with another compound), the T/C is, setting by setting: (endpoint: mean survival time, dose: 6.25 mg/kg/injection, schedule: Q01DX009 (ip), vehicle: other) 108 % of control; (endpoint: mean survival time, dose: 12.5 mg/kg/injection, schedule: Q01DX009 (ip), vehicle: other) 106 % of control; (endpoint: mean survival time, dose: 25.0 mg/kg/injection, schedule: Q01DX009 (ip), vehicle: other) 116 % of control; (endpoint: mean survival time, dose: 50.0 mg/kg/injection, schedule: Q01DX009 (ip), vehicle: other) 97 % of control.

Consider `COC(=O)CC(CC(=O)c1ccccc1)c1ccccc1` (stereo unspecified), for which the T/C by setting is: (endpoint: mean survival time, dose: 50.0 mg/kg/injection, schedule: Q01DX009 (ip), vehicle: distilled water + Tween-80) 94 % of control; under setting [3], 95 % of control and 98 % of control; (endpoint: mean survival time, dose: 100.0 mg/kg/injection, schedule: Q01DX009 (ip), vehicle: distilled water + Tween-80) 90 % of control; under setting [4], 100 % of control and 106 % of control; (endpoint: mean survival time, dose: 200.0 mg/kg/injection, schedule: Q01DX009 (ip), vehicle: distilled water + Tween-80) 90 % of control; under setting [5], 97 % of control and 100 % of control. Moreover, the T/C reads like this: (endpoint: mean survival time, dose: 400.0 mg/kg/injection, schedule: Q01DX009 (ip), vehicle: distilled water + Tween-80) 90 % of control; (endpoint: mean survival time, dose: 400.0 mg/kg/injection, schedule: Q01DX009 (ip), vehicle: saline with Tween-80) 97 % of control and 98 % of control.

Take `CC(=O)OC1C(OC(C)=O)C(OC(C)=O)C(OC(C)=O)C(OC(C)=O)C1OC(C)=O` (stereo unspecified): the T/C is 100 % of control under setting [1], 86 % of control under setting [2] and 93 % of control under setting [6].

Take `O=C(Cl)c1ccc([N+](=O)[O-])cc1`: the T/C is 96 % of control under setting [3], 101 % of control under setting [4] and 104 % of control under setting [5].

`C(=N\N=C(c1ccccc1)c1ccccc1)/c1ccc2c(c1)CCC2`: the T/C reads like this: under setting [7], 87 % of control; under setting [8], 95 % of control; under setting [9], 91 % of control.

`CS(=O)(=O)OCCOS(C)(=O)=O`: the T/C is, setting by setting: under setting [4], 109 % of control; under setting [7], 104 % of control; under setting [5], 116 % of control; under setting [8], 115 % of control; under setting [9], 111 % of control.

On to `O=c1[nH]c(=O)n(C2CC(O)C(CO)O2)cc1/C=C/c1cccc([N+](=O)[O-])c1` (stereo unspecified), for which the T/C (endpoint: mean survival time, dose: 6.25 mg/kg/injection, schedule: Q01DX005 (ip), vehicle: distilled water + Tween-80) was 98 % of control; the T/C (endpoint: mean survival time, dose: 12.5 mg/kg/injection, schedule: Q01DX005 (ip), vehicle: distilled water + Tween-80) was 97 % of control; the T/C (endpoint: mean survival time, dose: 25.0 mg/kg/injection, schedule: Q01DX005 (ip), vehicle: distilled water + Tween-80) is 95 % of control; the T/C (endpoint: mean survival time, dose: 50.0 mg/kg/injection, schedule: Q01DX005 (ip), vehicle: distilled water + Tween-80) was 93 % of control; the T/C (endpoint: mean survival time, dose: 100.0 mg/kg/injection, schedule: Q01DX005 (ip), vehicle: distilled water + Tween-80) is 94 % of control.

On to `C=CCCC(=O)CCCC(=O)O[C@@H]1[C@@H]2[C@H](CC1(C)C)[C@H](O)[C@@]13O[C@@H]1[C@H](O)[C@@]1(CO1)[C@@]23C`, for which the T/C runs as follows: (endpoint: mean survival time, dose: 6.2 micrograms/kg/injection, schedule: Q01DX009 (ip), vehicle: saline) 95 % of control; (endpoint: mean survival time, dose: 12.5 micrograms/kg/injection, schedule: Q01DX009 (ip), vehicle: saline) 89 % of control; (endpoint: mean survival time, dose: 25.0 micrograms/kg/injection, schedule: Q01DX009 (ip), vehicle: saline) 95 % of control; (endpoint: mean survival time, dose: 50.0 micrograms/kg/injection, schedule: Q01DX009 (ip), vehicle: saline) 97 % of control; (endpoint: median survival time, dose: 25.0 micrograms/kg/injection, schedule: Q01DX009 (ip), vehicle: Klucel (hydroxypropylcellulose) (HPC)) 101 % of control; (endpoint: median survival time, dose: 50.0 micrograms/kg/injection, schedule: Q01DX009 (ip), vehicle: Klucel (hydroxypropylcellulose) (HPC)) 101 % of control. Moreover, the T/C (endpoint: median survival time, dose: 100.0 micrograms/kg/injection, schedule: Q01DX009 (ip), vehicle: Klucel (hydroxypropylcellulose) (HPC)) was 100 % of control; the T/C (endpoint: median survival time, dose: 200.0 micrograms/kg/injection, schedule: Q01DX009 (ip), vehicle: Klucel (hydroxypropylcellulose) (HPC)) is 94 % of control; the T/C (endpoint: median survival time, dose: 400.0 micrograms/kg/injection, schedule: Q01DX009 (ip), vehicle: Klucel (hydroxypropylcellulose) (HPC)) was 97 % of control.

Take `O=c1[nH]c(Cc2ccccc2)c(N=Nc2ccccc2)c(=O)[nH]1`: the T/C was 90 % of control under setting [10] and 89 % of control under setting [11].

For the compound `O=c1[nH]cc(Br)c(=O)[nH]1`, the T/C by setting is: under setting [1], 101 % of control; under setting [2], 97 % of control; under setting [6], 106 % of control.

Consider `COc1cc(-c2[o+]c3cc(O)cc(O)c3cc2OC2OC(CO)C(O)C(O)C2O)cc(OC)c1O` (stereo unspecified), for which the T/C by setting is: under setting [12], 94 % of control; under setting [3], 96 % of control; under setting [4], 96 % of control.

On to `CN(C1=CC(=O)C(N(C)C2CCCCC2)=CC1=O)C1CCCCC1`, for which the T/C is 94 % of control (endpoint: mean survival time, dose: 3.75 mg/kg/injection, schedule: Q01DX009 (ip), vehicle: saline); 103 % of control (endpoint: mean survival time, dose: 3.75 mg/kg/injection, schedule: Q04DX003 (ip), vehicle: saline); 90 % of control (endpoint: mean survival time, dose: 7.5 mg/kg/injection, schedule: Q01DX009 (ip), vehicle: saline); 101 % of control (endpoint: mean survival time, dose: 7.5 mg/kg/injection, schedule: Q04DX003 (ip), vehicle: saline); 89 % of control (endpoint: mean survival time, dose: 15.0 mg/kg/injection, schedule: Q01DX009 (ip), vehicle: saline); 98 % of control (endpoint: mean survival time, dose: 15.0 mg/kg/injection, schedule: Q04DX003 (ip), vehicle: saline).

As to `CCOC(=O)c1ccc(N)cc1`, the T/C was 106 % of control (endpoint: mean survival time, dose: 12.5 mg/kg/injection, schedule: Q01DX001 (ip), vehicle: saline with Tween-80); 100 % of control (endpoint: mean survival time, dose: 25.0 mg/kg/injection, schedule: Q01DX001 (ip), vehicle: saline with Tween-80); 100 % of control (endpoint: mean survival time, dose: 50.0 mg/kg/injection, schedule: Q01DX001 (ip), vehicle: saline with Tween-80); 97 % of control (endpoint: mean survival time, dose: 75.0 mg/kg/injection, schedule: Q01DX001 (ip), vehicle: other); 93 % of control (endpoint: mean survival time, dose: 75.0 mg/kg/injection, schedule: Q04DX003 (ip), vehicle: saline with Tween-80); 103 % of control (endpoint: mean survival time, dose: 150.0 mg/kg/injection, schedule: Q01DX001 (ip), vehicle: other). In addition, the T/C was 100 % of control (endpoint: mean survival time, dose: 150.0 mg/kg/injection, schedule: Q04DX003 (ip), vehicle: saline with Tween-80); 226 % of control and 96 % of control under setting [10]; 100 % of control and 103 % of control under setting [11].

In the case of `Cc1ccc[n+](CCc2c[nH]c3ccccc23)c1`, the T/C runs as follows: (endpoint: mean survival time, dose: 12.5 mg/kg/injection, schedule: Q01DX009 (ip), vehicle: saline with Tween-80) 100 % of control; under setting [12], 96 % of control; (endpoint: mean survival time, dose: 25.0 mg/kg/injection, schedule: Q04DX003 (ip), vehicle: saline with Tween-80) 98 % of control; under setting [3], 101 % of control; (endpoint: mean survival time, dose: 50.0 mg/kg/injection, schedule: Q04DX003 (ip), vehicle: saline with Tween-80) 95 % of control.

In the case of `CCCCCCCCCCCCOC(=O)c1ccc([N+](=O)[O-])cc1`, the T/C was 94 % of control (endpoint: mean survival time, dose: 100.0 mg/kg/injection, schedule: Q01DX001 (ip), vehicle: saline with Tween-80); 91 % of control under setting [10]; 91 % of control under setting [11].

As for `O=C(c1ccccc1Cl)c1cccc2ccccc12`, the T/C runs as follows: (endpoint: mean survival time, dose: 100.0 mg/kg/injection, schedule: Q01DX009 (ip), vehicle: saline) 110 % of control; (endpoint: mean survival time, dose: 200.0 mg/kg/injection, schedule: Q01DX009 (ip), vehicle: saline) 96 % of control; (endpoint: mean survival time, dose: 400.0 mg/kg/injection, schedule: Q01DX009 (ip), vehicle: saline) 94 % of control.

In the case of `NC1=NCCCN1`, the T/C runs as follows: (endpoint: mean survival time, dose: 3.0 mg/kg/injection, schedule: Q01DX009 (ip), vehicle: saline sonified) 109 % of control; (endpoint: mean survival time, dose: 6.0 mg/kg/injection, schedule: Q01DX009 (ip), vehicle: saline sonified) 111 % of control; (endpoint: mean survival time, dose: 12.0 mg/kg/injection, schedule: Q01DX009 (ip), vehicle: saline sonified) 94 % of control.

Source of the values: PubChem BioAssay AID256 (DTP/NCI, 2004).
